Structures can show the parent of a compound that is named as a salt. One block for each molecule: values may come before it.
Tests used:
[1] = test system: grafted B16 F0 murine melanoma tumour; assay: Biodistribution of the ^125I-labelled molecules in the melanoma-bearing mouse (autoradiography of whole-body sections); conditions: for Biodistribution, Mean, B 16: B 16 tumour; for tumour concentration, times higher than with BZA: at 72 hours (FIG. 1B)
[2] = Elimination of the molecules: cumulative urinary and faecal excretion 0-72 hours; format: in vivo, mouse; conditions: cumulative excretion 0-72 hours; for Faecal elimination 0-72 hours (Faeces) / Urinary elimination 0-72 hours (Urine): mice in metabolic cages; for Urinary and faecal elimination 0-72 hours (Total): urine + faeces
tumour = assay: Dosimetry with regard to the tumour (MIRD programme, extrapolated to ^131I); conditions: for Effective period: extrapolated to 131I labelling; for Biological period: from biodistribution data

- Biodistribution, Mean, B 16 ([1]; 1 H): 19.07
- Biodistribution, Mean, B 16 ([1]; 3 H): 20.34
- Biodistribution, Mean, B 16 ([1]; 6 H): 27.38
- Biodistribution, Mean, B 16 ([1]; 24 H): 18.28
- Biodistribution, Mean, B 16 ([1]; 72 H): 10.86
- Biodistribution, Mean, GB ([1]; 3 H): 50.82
- Biodistribution, Mean, GB ([1]; 6 H): 55.80
- Biodistribution, Mean, Ic ([1]; 1 H): 24.45
- Biodistribution, Mean, Ic ([1]; 3 H): 23.54
- Biodistribution, Mean, Ic ([1]; 6 H): 26.72
- Biodistribution, Mean, Ic ([1]; 24 H): 1.21
- Biodistribution, Mean, Sc ([1]; 1 H): 25.53
- Biodistribution, Mean, Sc ([1]; 3 H): 24.89
- Biodistribution, Mean, Sc ([1]; 6 H): 22.21
- Biodistribution, Mean, Sc ([1]; 24 H): 2.16
- tumour concentration, times higher than with BZA [1]: 14 times
- Biodistribution, Mean, blood ([1]; 1 H): 3.31
- Biodistribution, Mean, blood ([1]; 3 H): 3.47
- Biodistribution, Mean, blood ([1]; 6 H): 2.50
- tumour concentration, % of the injected dose per gram of tumour ([1]; from the first hour): 19.1 % ID/g
- Biodistribution, Mean, kidney ([1]; 1 H): 18.29
- Biodistribution, Mean, kidney ([1]; 3 H): 13.10
- Biodistribution, Mean, kidney ([1]; 6 H): 7.98
- Biodistribution, Mean, liver ([1]; 1 H): 13.79
- Biodistribution, Mean, liver ([1]; 3 H): 7.77
- Biodistribution, Mean, liver ([1]; 6 H): 3.89
- Biodistribution, Mean, lungs ([1]; 1 H): 8.33
- Biodistribution, Mean, lungs ([1]; 3 H): 6.88
- Biodistribution, Mean, lungs ([1]; 6 H): 3.34
- Biodistribution, Mean, muscle ([1]; 1 H): 2.00
- Biodistribution, Mean, muscle ([1]; 3 H): 1.41
- Biodistribution, Mean, muscle ([1]; 6 H): 0.45
- Biodistribution, Mean, pancreas ([1]; 1 H): 21.47
- Biodistribution, Mean, pancreas ([1]; 3 H): 9.71
- Biodistribution, Mean, spleen ([1]; 1 H): 18.88
- Biodistribution, Mean, spleen ([1]; 3 H): 16.71
- Biodistribution, Mean, thyroid ([1]; 1 H): 28.75
- Biodistribution, Mean, thyroid ([1]; 3 H): 125.51
- Biodistribution, Mean, thyroid ([1]; 6 H): 16.38
- Biodistribution, Mean, thyroid ([1]; 72 H): 53.26
- Biodistribution, Mean, uvea ([1]; 1 H): 21.04
- Biodistribution, Mean, uvea ([1]; 3 H): 31.76
- Biodistribution, Mean, uvea ([1]; 6 H): 28.78
- Biodistribution, Mean, uvea ([1]; 24 H): 19.22
- Biodistribution, Mean, uvea ([1]; 72 H): 19.78
- Faecal elimination 0-72 hours (Faeces) [2]: 19.9%
- Urinary and faecal elimination 0-72 hours (Total) [2]: 87.1%
- Urinary elimination 0-72 hours (Urine) [2]: 67.2%
- Effective period (tumour): 51.2 h
- Biological period (tumour): 69.7 hours
Compound: CCCN(CCC)CCCCNC(=O)c1ccc2cc(I)ccc2n1 [compound 49, N-(4-dipropylaminobutyl)-6-iodoquinoline-2-carboxamide dihydrochloride]

- tumour concentration, times higher than with BZA [1]: 22 times
- Faecal elimination 0-72 hours (Faeces) [2]: 38.4%
- Urinary and faecal elimination 0-72 hours (Total) [2]: 48.8%
- Urinary elimination 0-72 hours (Urine) [2]: 10.4%
- Effective period (tumour): 112.5 h
- Biological period (tumour): 268.9 hours
Compound: CCN(CC)CCNC(=O)c1cccc2c(=O)c3cc(I)ccc3[nH]c12 [compound 84, N-(2-diethylaminoethyl)-9,10-dihydro-7-iodo-9-oxoacridine-4-carboxamide hydrochloride]

Compound: CCN(CC)CCNC(=O)c1ccc2cncc(I)c2n1.Cl.Cl [compound 142, N-(2-diethylaminoethyl)-8-iodo-1,6-naphthyridine-2-carboxamide dihydrochloride]
- Biodistribution, Mean, B 16 ([1]; 1 H): 23.22
- Biodistribution, Mean, B 16 ([1]; 3 H): 13.87
- Biodistribution, Mean, B 16 ([1]; 6 H): 11.42
- Biodistribution, Mean, B 16 ([1]; 24 H): 8.37
- Biodistribution, Mean, B 16 ([1]; 72 H): 3.31
- Biodistribution, Mean, GB ([1]; 3 H): 41.51
- Biodistribution, Mean, GB ([1]; 6 H): 28.67
- Biodistribution, Mean, Ic ([1]; 1 H): 32.83
- Biodistribution, Mean, Ic ([1]; 3 H): 47.65
- Biodistribution, Mean, Ic ([1]; 6 H): 43.48
- Biodistribution, Mean, Ic ([1]; 24 H): 0.82
- Biodistribution, Mean, Sc ([1]; 1 H): 17.58
- Biodistribution, Mean, Sc ([1]; 3 H): 9.76
- Biodistribution, Mean, Sc ([1]; 6 H): 9.17
- Biodistribution, Mean, Sc ([1]; 24 H): 0.62
- Biodistribution, Mean, Sc ([1]; 72 H): 2.13
- tumour concentration (in words) ([1]; ^125I-labelled compound, melanoma-bearing mouse): very high tumour concentration from one hour
- Biodistribution, Mean, blood ([1]; 1 H): 2.21
- Biodistribution, Mean, blood ([1]; 3 H): 1.88
- Biodistribution, Mean, blood ([1]; 6 H): 1.36
- Biodistribution, Mean, brain ([1]; brain, 1 H): 0.35
- Biodistribution, Mean, kidney ([1]; 1 H): 4.01
- Biodistribution, Mean, kidney ([1]; 3 H): 1.51
- Biodistribution, Mean, kidney ([1]; 6 H): 1.20
- Biodistribution, Mean, liver ([1]; 1 H): 3.92
- Biodistribution, Mean, liver ([1]; 3 H): 2.27
- Biodistribution, Mean, liver ([1]; 6 H): 1.49
- Biodistribution, Mean, lungs ([1]; 1 H): 2.36
- Biodistribution, Mean, lungs ([1]; 3 H): 1.87
- Biodistribution, Mean, lungs ([1]; 6 H): 1.26
- Biodistribution, Mean, muscle ([1]; 1 H): 0.86
- Biodistribution, Mean, muscle ([1]; 3 H): 0.43
- Biodistribution, Mean, muscle ([1]; 6 H): 0.24
- Biodistribution, Mean, pancreas ([1]; 1 H): 1.78
- Biodistribution, Mean, spleen ([1]; 1 H): 5.38
- Biodistribution, Mean, spleen ([1]; 3 H): 0.93
- Biodistribution, Mean, thyroid ([1]; 1 H): 20.16
- Biodistribution, Mean, thyroid ([1]; 3 H): 41.44
- Biodistribution, Mean, thyroid ([1]; 6 H): 56.95
- Biodistribution, Mean, thyroid ([1]; 24 H): 115.66
- Biodistribution, Mean, uvea ([1]; 1 H): 24.11
- Biodistribution, Mean, uvea ([1]; 3 H): 20.30
- Biodistribution, Mean, uvea ([1]; 6 H): 13.15
- Biodistribution, Mean, uvea ([1]; 24 H): 10.00
- Biodistribution, Mean, uvea ([1]; 72 H): 13.06
- Faecal elimination 0-72 hours (Faeces) [2]: 29.4%
- Urinary and faecal elimination 0-72 hours (Total) [2]: 98.3%
- Urinary elimination 0-72 hours (Urine) [2]: 68.9%
- Effective period (tumour): 26.1 h
- Biological period (tumour): 30.2 hours

Source: patent US20100061928A1, “LABELLED ANALOGUES OF HALOBENZAMIDES AS RADIOPHARMACEUTICALS” (Institut National De La Sante et De La Recherche Medicale …, priority 2006, published 2010)
